Reference: ChEMBL document CHEMBL1201862, “PubChem BioAssay data set” (2004)
Active and inactive are the calls of the source.

What was measured:
[1] = molecular target: Luciferin 4-monooxygenase (Photinus pyralis, UniProt P08659); test: inhibition of purified Photinus pyralis luciferase – biochemical, luminescence, dose response (AID 1891)
[2] = Luminescence Cell-Based Dose Confirmation HTS to Identify Inhibitors of Platelet Dense Granule Release. [Related pubchem assays: 1663 (Primary HTS), 1678 (Summary of Project)]; assay type: functional
[3] = tested on: INS1; test: INS-1E survival protection against cytokine death – cell-based, luminescence, retest, dose response (AID 449756); assay type: functional; details: Rattus norvegicus;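 note: cell death triggered by IL-1 beta plus TNF-alpha plus IFN-gamma mixture; protective hits raise ATP signal compared with cytokine alone wells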
[4] = molecular target: Cytochrome P450 3A4 (Homo sapiens, UniProt P08684);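 note: CYP3A4 tested as one member of a cytochrome P450 panel screen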
[5] = molecular target: Cytochrome P450 2C19 (Homo sapiens, UniProt P33261); test: Cytochrome panel assay with activity outcomes. Panel member name: p450-cyp2c19 Compounds with AC50 equal or less than 10 uM are considered active; assay type: functional
[6] = viability of uninfected HEp-2 cells – cell-based, HTS, cytotoxicity control for RSV inhibitor project, dose response (AID 2410); assay type: functional; details: human respiratory syncytial virus
[7] = molecular target: T1, Corticotropin-releasing factor receptor 2/Corticotropin-releasing factor-binding protein (Homo sapiens, UniProt P24387+Q13324); test: activators of CRF receptor 2 with binding protein – uHTS hits, confirmation (AID 602473); assay type: functional; details: read-out: EC50_Mean
T1 sequence (Q13324 whole entry): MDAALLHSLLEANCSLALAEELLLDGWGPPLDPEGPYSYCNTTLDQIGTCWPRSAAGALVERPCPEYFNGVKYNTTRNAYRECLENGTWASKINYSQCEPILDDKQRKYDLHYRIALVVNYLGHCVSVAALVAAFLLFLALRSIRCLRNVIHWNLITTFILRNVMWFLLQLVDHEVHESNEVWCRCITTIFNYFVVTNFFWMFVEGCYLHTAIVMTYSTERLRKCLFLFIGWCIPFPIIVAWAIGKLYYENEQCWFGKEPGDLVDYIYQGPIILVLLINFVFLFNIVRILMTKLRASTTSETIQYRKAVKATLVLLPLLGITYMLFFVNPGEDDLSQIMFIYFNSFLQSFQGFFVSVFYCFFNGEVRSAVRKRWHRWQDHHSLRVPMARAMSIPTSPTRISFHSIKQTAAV
T1 sequence (P24387 whole entry): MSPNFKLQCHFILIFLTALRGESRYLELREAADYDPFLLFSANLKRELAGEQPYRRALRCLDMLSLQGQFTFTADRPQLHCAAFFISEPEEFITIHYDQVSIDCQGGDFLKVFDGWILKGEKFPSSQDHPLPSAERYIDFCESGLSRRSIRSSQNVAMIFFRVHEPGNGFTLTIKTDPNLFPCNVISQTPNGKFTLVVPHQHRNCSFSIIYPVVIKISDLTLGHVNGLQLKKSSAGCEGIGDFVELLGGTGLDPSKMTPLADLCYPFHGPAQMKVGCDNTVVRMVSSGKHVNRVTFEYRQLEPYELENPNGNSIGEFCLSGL

[8] = molecular target: T1, Corticotropin-releasing factor receptor 2/Corticotropin-releasing factor-binding protein; test: Dose Response confirmation of uHTS hits for small molecule antagonists of the CRF-binding protein and CRF-R2 receptor complex.; assay type: functional; details: read-out: IC50_Mean
[9] = molecular target: Cytochrome P450 2C9 (Homo sapiens, UniProt P11712)
[10] = molecular target: Cytochrome P450 2D6 (Homo sapiens, UniProt P10635);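 note: CYP2D6 member of a cytochrome P450 panel assay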
[11] = molecular target: T2, Cytochrome P450 1A2 (Homo sapiens, UniProt P05177);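 note: PubChem cytochrome P450 panel assay, CYP1A2 panel member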
T2 sequence (P05177 whole entry): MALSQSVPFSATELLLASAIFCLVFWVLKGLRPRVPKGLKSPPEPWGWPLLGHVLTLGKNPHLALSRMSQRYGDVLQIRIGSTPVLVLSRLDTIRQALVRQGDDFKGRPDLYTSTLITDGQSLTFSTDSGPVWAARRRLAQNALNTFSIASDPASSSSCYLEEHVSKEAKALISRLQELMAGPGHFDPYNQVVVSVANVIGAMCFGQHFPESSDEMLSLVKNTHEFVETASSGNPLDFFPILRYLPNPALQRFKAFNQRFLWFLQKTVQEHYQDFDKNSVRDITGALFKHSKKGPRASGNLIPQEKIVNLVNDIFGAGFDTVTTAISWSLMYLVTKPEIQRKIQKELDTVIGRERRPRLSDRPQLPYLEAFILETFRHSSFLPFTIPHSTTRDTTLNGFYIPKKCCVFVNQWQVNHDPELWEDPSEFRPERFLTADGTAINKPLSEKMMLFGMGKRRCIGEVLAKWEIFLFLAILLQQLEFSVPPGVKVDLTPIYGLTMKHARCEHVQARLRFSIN

Sequence of Cytochrome P450 3A4 (P08684 whole entry): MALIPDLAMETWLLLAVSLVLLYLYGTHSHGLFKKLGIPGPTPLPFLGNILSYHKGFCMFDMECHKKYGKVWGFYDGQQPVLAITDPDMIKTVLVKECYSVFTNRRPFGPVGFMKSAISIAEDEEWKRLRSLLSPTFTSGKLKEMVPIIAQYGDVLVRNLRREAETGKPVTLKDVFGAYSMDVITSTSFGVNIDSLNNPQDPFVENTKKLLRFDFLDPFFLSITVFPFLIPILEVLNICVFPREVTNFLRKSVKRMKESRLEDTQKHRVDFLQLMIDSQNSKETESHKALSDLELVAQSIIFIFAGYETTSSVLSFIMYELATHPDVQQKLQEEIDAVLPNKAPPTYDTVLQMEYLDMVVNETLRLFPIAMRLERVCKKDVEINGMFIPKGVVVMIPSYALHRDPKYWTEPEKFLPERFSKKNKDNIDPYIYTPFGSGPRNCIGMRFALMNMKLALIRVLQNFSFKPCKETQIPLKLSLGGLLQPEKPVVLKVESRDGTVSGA
Sequence of Luciferin 4-monooxygenase (P08659 whole entry): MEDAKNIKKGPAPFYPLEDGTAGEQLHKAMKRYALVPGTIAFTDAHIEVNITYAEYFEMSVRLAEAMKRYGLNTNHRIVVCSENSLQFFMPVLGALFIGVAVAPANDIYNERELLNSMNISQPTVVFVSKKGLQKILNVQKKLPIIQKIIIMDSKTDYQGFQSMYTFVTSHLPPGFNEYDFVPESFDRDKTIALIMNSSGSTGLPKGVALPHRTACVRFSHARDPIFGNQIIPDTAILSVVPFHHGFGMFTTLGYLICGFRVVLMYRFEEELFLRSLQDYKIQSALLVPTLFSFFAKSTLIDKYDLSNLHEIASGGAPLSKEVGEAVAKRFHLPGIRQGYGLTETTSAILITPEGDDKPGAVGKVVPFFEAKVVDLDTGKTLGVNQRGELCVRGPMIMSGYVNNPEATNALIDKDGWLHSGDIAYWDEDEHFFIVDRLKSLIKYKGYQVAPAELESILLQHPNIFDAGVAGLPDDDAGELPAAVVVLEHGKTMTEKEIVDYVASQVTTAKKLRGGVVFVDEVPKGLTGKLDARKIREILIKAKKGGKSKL
Sequence of Cytochrome P450 2C19 (P33261 whole entry): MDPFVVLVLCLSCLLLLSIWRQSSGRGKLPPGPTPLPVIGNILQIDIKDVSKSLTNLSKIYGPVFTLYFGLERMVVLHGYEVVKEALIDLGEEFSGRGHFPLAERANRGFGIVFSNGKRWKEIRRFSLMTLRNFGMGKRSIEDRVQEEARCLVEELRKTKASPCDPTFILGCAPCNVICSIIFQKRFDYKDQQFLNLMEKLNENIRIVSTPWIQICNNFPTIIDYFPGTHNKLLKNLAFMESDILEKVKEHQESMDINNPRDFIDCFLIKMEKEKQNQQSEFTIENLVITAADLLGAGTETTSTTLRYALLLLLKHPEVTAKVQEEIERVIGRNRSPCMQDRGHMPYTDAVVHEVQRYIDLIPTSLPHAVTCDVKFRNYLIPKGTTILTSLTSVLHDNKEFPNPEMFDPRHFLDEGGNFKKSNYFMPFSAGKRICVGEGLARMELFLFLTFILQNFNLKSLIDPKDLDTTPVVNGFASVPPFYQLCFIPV
Sequence of Cytochrome P450 2D6 (P10635 whole entry): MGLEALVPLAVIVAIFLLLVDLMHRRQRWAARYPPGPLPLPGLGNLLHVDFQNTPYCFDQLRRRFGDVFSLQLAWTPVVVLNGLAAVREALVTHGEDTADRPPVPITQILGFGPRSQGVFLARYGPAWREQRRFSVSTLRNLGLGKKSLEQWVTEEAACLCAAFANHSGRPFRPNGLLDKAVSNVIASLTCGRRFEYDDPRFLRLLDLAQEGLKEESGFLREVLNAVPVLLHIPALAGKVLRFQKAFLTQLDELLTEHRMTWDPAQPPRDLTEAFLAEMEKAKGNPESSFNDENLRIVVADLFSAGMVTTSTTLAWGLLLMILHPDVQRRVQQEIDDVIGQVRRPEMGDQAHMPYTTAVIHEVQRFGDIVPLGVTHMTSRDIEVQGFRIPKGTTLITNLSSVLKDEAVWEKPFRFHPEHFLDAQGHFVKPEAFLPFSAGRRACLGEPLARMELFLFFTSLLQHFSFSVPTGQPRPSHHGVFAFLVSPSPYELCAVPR
Sequence of Cytochrome P450 2C9 (P11712 whole entry): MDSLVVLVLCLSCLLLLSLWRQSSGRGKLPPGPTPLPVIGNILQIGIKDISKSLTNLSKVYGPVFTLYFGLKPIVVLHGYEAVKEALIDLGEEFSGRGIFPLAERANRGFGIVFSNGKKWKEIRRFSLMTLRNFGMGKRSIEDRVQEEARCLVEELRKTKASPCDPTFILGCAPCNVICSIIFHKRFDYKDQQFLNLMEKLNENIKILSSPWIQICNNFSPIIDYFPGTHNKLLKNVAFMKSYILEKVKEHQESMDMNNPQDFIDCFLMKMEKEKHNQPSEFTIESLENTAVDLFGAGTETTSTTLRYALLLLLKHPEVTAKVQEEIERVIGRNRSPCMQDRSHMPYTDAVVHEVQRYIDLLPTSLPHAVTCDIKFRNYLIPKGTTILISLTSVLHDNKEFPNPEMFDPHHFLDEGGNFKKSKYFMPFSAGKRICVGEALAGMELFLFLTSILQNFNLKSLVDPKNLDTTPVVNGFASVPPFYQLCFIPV

SMILES: Cn1c(SCC(=O)N2CCCC2)nnc1-c1cccs1
- EC50 [1]: > 112 µM (not active)
- EC50 [2]: > 112 µM (not active)

SMILES: CCOC(=O)CSc1nc(O)c2c(n1)-c1ccccc1CC2(C)CC (stereo not given)
- AC50 [3]: 40.1 µM (active)

SMILES: CC(=O)OCCNC(=O)Cn1cnc2c1c(=O)n(C)c(=O)n2C
- EC50 [1]: > 112 µM (not active)
- EC50 [2]: > 112 µM (not active)

SMILES: Cc1cc(C)c(NC(=O)CSc2ccc3nnc(CCNC(=O)c4ccccc4)n3n2)c(C)c1
- EC50 [1]: > 112 µM (not active)
- EC50 [2]: > 112 µM (not active)

SMILES: O=C(c1cccc(S(=O)(=O)N2CCOCC2)c1)N1CCN(c2ccc(F)cc2)CC1
- EC50 [1]: > 112 µM (not active)
- EC50 [2]: > 112 µM (not active)

SMILES: Cc1ccc(NC(=O)CCc2c(C)nc3ncnn3c2C)nc1
- AC50 [4]: 15.8 µM (inconclusive)
- AC50 [5]: inconclusive

SMILES: Cc1cc(Nc2nc3ccccc3nc2O)n(-c2ccccc2)n1
- CC50 [6]: 16.6 µM (active)

SMILES: COc1ccc(C(=O)Nc2ccc(C3CC3(Cl)Cl)cc2)cc1 (stereo not given)
- EC50 [7]: > 53 µM (inactive)
- IC50 [8]: > 47.1 µM (inactive)

SMILES: COc1ccc(-n2c(=O)cnc3cnc(N(C)C)nc32)cc1
- AC50 [4]: 39.8 µM (inconclusive)
- AC50 ([5]; read-out: AC50): 39.8 µM (inconclusive)

SMILES: Cc1nc2cnc(N3CCOCC3)nc2n(Cc2cccs2)c1=O
- AC50 [9]: 15.8 µM (inconclusive)
- AC50 [10]: 39.8 µM (inconclusive)
- AC50 [4]: 7.94 µM (inconclusive)

SMILES: Cc1ccc2nc(N=C(N)NC(=O)N3c4ccccc4Sc4ccccc43)nc(C)c2c1
- CC50 [6]: 12.8 µM (active)

SMILES: Cn1c(=S)oc2ccccc21
- EC50 [1]: > 112 µM (not active)
- EC50 [2]: > 112 µM (not active)

SMILES: COc1ccc(CNc2ncnc3ccc(-c4ccc5c(c4)OCO5)cc23)c(OC)c1
- AC50 [10]: 2.51 µM (active)
- AC50 [4]: 0.794 µM (active)

SMILES: CC(=O)Nc1ccc(OCC(O)CN2C(C)(C)CC(O)CC2(C)C)cc1 (stereo not given)
- EC50 [7]: > 53 µM (inactive)
- IC50 [8]: > 47.1 µM (inactive)

SMILES: COc1ccc(NC(=O)CN(C)C(=O)c2cccc(S(=O)(=O)N3CCN(c4ccc(F)cc4)CC3)c2)cc1
- EC50 [7]: > 53 µM (inactive)
- IC50 [8]: > 47.1 µM (inactive)

SMILES: CC(C)N1CCN(Cc2nc(-c3ccccc3)cs2)CC1CCO (stereo not given)
- EC50 [7]: > 53 µM (inactive)
- IC50 [8]: > 47.1 µM (inactive)

SMILES: O=C(CSc1nc(-c2ccco2)cc(C(F)(F)F)n1)NCCCN1CCOCC1
- EC50 [7]: > 53 µM (inactive)
- IC50 [8]: > 47.1 µM (inactive)

SMILES: Cc1ccc(C(=O)N/N=C\c2cccn2C)cn1
- AC50 [9]: 89.1 µM (inconclusive)
- AC50 [4]: 0.316 µM (inconclusive)

SMILES: NC(=S)N/N=C/c1c(O)c(Br)cc2oc3c(c12)CCCC3
- AC50 [3]: 0.819 µM (active)

SMILES: CC/C(=N\NC(N)=O)c1ccc(OC(F)F)cc1
- CC50 [6]: 27.5 µM (active)

SMILES: CP(=O)(O)C1=CCNCC1
- AC50 [4]: 39.8 µM (inconclusive)

SMILES: Cc1cc(C)cc(C(=O)N(C)[C@H](Cc2ccc(-c3ccccc3)cc2)C(=O)N[C@@H](Cc2c[nH]c3ccccc23)C(=O)O)c1
- AC50 [11]: 39.8 µM (inconclusive)
- AC50 [4]: 25.1 µM (inconclusive)

SMILES: COc1cc(N)c(Cl)cc1C(=O)OCCCN1CCCCC1
- AC50 [4]: 25.1 µM (inconclusive)
